Source: patent US20050059645A1, “Methods for the treatment of male and female sexual dysfunction” (priority 2003, published 2005)

What was measured:
[1] = system: LH; assay: Plasma LH by radioimmunoassay in orchidectomized male rats; format: in vivo, rat; conditions: for plasma LH level: repeated examination
Description: (§1) Four weeks following orchidectomy, groups of rats were treated with one of the following drug doses via tail vein injection: E2-CDS 0.03, 0.3, and 3 mg/kg. Blood samples were collected by orbital sinus puncture under light ether anesthesia. The samples were stored at 4° C. for one hour and centrifuged at 1,000 g for 10 minutes. Plasma was separated and stored at −80° C. until assayed. Plasma LH concentrations from individual samples were measured by double antibody radioimmunoassay kits obtained from Amersham Pharmacia Biotech, Rome, Italy. […] The limit of detection was 15 pg/ml.
(§2) Behavioral changes were analyzed using the Mann-Whitney U test (Siegel, Nonparametric Statistics for the Behavioral Sciences, New York; McGraw-Hill Book Company, Inc., 1956). The Fisher exact test was used for percentage comparisons (Zar, Biostatistical Analysis, Prentice Hall, Inc., Englewood Cliffs, N.J., 1974). Serum LH data were analyzed for each time and treatment group by analysis of variance (ANOVA) followed by Bonferroni posthoc test.

[2] = system: castrated male rats; assay: Male rat copulatory behavior after orchidectomy; format: in vivo
Description: Adult male Sprague Dawley rats (300-400 g) from Charles River Hungary Ltd., Godollo, Hungary, were used. Animals were kept in community cages (4 animals/cage) in a climate-controlled room (23±2° C.), with a 14 hour light, 10 hour dark cycle of artificial lighting, using reversed light/dark cycle. […] These hormones were dissolved in sunflower oil.
After establishment of basal behaviors as discussed below, selected animals were orchidectomized via a single midventral incision and were rehoused.
After repeated testing of animals recovered from orchidectomy as discussed below, rats were divided into four groups and treated intravenously, via a single tail vein injection, with one of the following: group 1: control (27% hydroxypropyl-β-cyclodextrin); group 2: 0.03 mg/kg E2-CDS; group 3: 0.3 mg/kg E2-CDS; and group 4: 3 mg/kg E2-CDS.
Mating was observed during the dark cycle in a plexi observation cage in a room where only a dim red light was on. The male was placed in the observation cage 5 minutes prior to the female.
The following parameters were then measured: • Mount latency (ML): the time from the introduction of the female to the initial mount or intromission; • Intromission latency (IL): the time from introduction of the female to the first intromission; and • Ejaculatory latency (EL): the time from the first intromission to ejaculation.
Sessions were considered negative if IL exceeded 15 minutes.
To establish basal behavior, each male was tested every 5 days until four successive and consistent behavioral patterns were achieved. This pretesting lasted for about four weeks. Approximately half of the animals tested were deemed suitable for orchidectomy.
Twenty-eight days after healing from orchidectomy, the animals were tested again (Day 0) and divided into 4 experimental groups. Only animals displaying ejaculation latencies greater than 15 minutes were included in the study.
Tests of male sexual behavior were conducted 3, 7, 14, 21, 28, 35 and 42 days after drug administration or until the effect disappeared, i.e. until no statistically significant difference was found between groups during two consecutive tests.
Behavioral patterns and related times were recorded manually by skilled observers.
as §1, §2
The testing described above was repeated using a dose of 0.03 mg/kg administered as a single i.v. injection, and a dose of 0.01 mg/kg with daily i.v. administration for 10 days. E2-CDS stock solution (40%) was diluted in 27% HPβCD solution.
The copulatory behavior of E2-CDS treated groups was compared to that of the HPβCD control group at 1, 3, 7, 14, and 21 days after i.v. drug administration in the 0.03 mg/kg group and at 1, 3, 7, 14 and 21 days after initial i.v. drug administration in the 0.01 mg/kg×10 days group.

[3] = 3.0 mg/kg single i.v., days 14, 21 and 28

CN1C=CCC(C(=O)O[C@H]2CC[C@H]3[C@@H]4CCc5cc(O)ccc5[C@H]4CC[C@]23C)=C1 [E2-CDS, 17β-[(1-methyl-1,4-dihydro-3-pyridinyl)carbonyloxy]estra-1,3,5(10)-trien-3-ol]
plasma LH level ([1]; 0.01 mg/kg i.v., 10 daily injections): significantly reduced at the dose of 0.01 mg/kg (10 daily injections) from day 3 to day 14 | plasma LH level ([1]; 0.03 mg/kg single injection): significantly reduced on day 3 only | plasma LH levels ([1]; 0.3 mg/kg single i.v.): significantly reduced the LH levels on days 1, 3, and 7 | plasma LH levels ([1]; 3 mg/kg single i.v.): suppressed significantly throughout 28 days | effect on copulatory behavior ([2]; 0.03 mg/kg single i.v., first study): no statistically significant effect | sexual activity ([2]; 0.03 mg/kg single i.v., repeated study): improved sexual activity, but it was not statistically significant in any observations | mount frequency ([2]; 0.3 mg/kg single i.v.): significantly increased on day 7 | mount latency ([2]; 0.3 mg/kg single i.v.): sharply reduced from day 7 through day 28 | intromission performance ([2]; 3.0 mg/kg single i.v.): improved in a statistically significant manner from day 14 through day 28 | mount latency ([2]; 3.0 mg/kg single i.v.): sharply reduced from day 7 through day 28 | intromission frequency [2, 3]: statistically significant increase in intromission frequency | intromission latency [2, 3]: decrease in intromission latency | effect on re-establishment of copulatory behavior ([2]; 0.3 and 3.0 mg/kg single i.v.): significant at doses of 0.3 and 3.0 mg/kg through day 28
